Results: patent publication US8471005B2 (Cephalon, Inc., priority 2008, dated 2013)
Where two headings read alike, the source gives them in different places.

Assays:
JAK2 = target: T1, JAK2 (Homo sapiens, UniProt O60674); assay: Recombinant Human JAK2 Kinase Assay (TRF); assay type: biochemical; conditions: read-out: JAK2 Potency
T1 construct: host or cells: baculovirus expression system
Outline: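 Europium-labelled PY100 antibody reported tyrosine phosphorylation of a Neutravidin-captured biotinyl 15-mer peptide by JAK2 (baculovirus-expressed, 15 ng/ml). Conditions: 20 mM HEPES pH 7.2, 0.2 μM ATP, 1 mM MnCl2, 0.1% BSA, DMSO 2.5% final, 20 min at room temperature.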

ALK = target: T2, ALK (Homo sapiens, UniProt Q9UM73); assay: ALK Kinase Assay (ELISA/TRF, PLC-γ substrate); assay type: biochemical; conditions: read-out: ALK Potency
T2 construct: host or cells: baculovirus expression system
T2 sequence (Q9UM73 19-1620): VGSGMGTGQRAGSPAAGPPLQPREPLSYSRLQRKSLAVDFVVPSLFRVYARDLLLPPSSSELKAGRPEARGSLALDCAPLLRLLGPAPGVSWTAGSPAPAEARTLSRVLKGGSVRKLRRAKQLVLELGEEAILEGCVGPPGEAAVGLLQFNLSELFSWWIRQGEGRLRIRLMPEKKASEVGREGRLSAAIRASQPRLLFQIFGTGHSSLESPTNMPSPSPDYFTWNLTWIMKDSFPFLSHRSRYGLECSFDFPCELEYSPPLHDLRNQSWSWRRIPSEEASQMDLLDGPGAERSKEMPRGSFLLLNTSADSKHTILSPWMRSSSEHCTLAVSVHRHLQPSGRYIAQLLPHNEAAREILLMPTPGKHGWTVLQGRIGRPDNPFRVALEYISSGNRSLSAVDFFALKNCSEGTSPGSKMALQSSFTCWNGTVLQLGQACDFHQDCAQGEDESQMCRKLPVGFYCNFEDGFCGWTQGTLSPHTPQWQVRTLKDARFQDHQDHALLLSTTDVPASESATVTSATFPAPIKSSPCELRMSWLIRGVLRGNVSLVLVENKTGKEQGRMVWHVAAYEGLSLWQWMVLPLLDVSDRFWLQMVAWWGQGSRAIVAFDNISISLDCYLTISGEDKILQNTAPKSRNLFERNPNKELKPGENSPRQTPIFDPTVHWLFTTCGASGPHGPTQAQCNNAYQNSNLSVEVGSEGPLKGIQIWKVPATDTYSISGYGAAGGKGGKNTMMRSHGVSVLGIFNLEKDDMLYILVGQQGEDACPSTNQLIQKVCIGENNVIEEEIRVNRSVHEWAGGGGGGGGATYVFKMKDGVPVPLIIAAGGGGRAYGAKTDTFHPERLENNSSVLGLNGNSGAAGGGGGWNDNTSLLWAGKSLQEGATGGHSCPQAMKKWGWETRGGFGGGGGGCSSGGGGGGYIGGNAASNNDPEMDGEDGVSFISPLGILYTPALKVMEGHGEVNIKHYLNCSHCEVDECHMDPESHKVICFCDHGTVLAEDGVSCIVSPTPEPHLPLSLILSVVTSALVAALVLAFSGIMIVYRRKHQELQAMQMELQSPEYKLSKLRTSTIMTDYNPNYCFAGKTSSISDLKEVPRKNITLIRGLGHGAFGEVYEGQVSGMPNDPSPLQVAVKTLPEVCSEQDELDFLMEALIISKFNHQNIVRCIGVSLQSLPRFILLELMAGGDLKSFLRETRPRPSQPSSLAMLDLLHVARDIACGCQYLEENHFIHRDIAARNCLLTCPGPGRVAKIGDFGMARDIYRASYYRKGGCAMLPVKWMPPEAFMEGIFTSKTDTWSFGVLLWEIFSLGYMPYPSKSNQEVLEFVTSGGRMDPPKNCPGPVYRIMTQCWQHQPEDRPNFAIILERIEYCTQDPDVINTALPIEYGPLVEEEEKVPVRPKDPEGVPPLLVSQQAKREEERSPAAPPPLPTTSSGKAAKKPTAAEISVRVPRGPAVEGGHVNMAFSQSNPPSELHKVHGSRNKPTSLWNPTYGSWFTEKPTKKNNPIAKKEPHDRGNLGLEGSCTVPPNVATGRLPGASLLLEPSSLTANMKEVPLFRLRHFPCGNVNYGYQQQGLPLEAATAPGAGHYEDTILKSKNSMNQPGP
Outline: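 Time-resolved fluorescence ELISA using Eu-N1 PT66 antibody to detect phosphorylated PLC-γ (coated at 10 μg/mL). Enzyme at 30 ng/ml ALK; 15 min incubation, 37° C.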

[1] = JAK2 kinase inhibition, 0.2 μM ATP
[2] = ALK kinase inhibition, 1 μM ATP

T1 sequence (O60674 whole entry): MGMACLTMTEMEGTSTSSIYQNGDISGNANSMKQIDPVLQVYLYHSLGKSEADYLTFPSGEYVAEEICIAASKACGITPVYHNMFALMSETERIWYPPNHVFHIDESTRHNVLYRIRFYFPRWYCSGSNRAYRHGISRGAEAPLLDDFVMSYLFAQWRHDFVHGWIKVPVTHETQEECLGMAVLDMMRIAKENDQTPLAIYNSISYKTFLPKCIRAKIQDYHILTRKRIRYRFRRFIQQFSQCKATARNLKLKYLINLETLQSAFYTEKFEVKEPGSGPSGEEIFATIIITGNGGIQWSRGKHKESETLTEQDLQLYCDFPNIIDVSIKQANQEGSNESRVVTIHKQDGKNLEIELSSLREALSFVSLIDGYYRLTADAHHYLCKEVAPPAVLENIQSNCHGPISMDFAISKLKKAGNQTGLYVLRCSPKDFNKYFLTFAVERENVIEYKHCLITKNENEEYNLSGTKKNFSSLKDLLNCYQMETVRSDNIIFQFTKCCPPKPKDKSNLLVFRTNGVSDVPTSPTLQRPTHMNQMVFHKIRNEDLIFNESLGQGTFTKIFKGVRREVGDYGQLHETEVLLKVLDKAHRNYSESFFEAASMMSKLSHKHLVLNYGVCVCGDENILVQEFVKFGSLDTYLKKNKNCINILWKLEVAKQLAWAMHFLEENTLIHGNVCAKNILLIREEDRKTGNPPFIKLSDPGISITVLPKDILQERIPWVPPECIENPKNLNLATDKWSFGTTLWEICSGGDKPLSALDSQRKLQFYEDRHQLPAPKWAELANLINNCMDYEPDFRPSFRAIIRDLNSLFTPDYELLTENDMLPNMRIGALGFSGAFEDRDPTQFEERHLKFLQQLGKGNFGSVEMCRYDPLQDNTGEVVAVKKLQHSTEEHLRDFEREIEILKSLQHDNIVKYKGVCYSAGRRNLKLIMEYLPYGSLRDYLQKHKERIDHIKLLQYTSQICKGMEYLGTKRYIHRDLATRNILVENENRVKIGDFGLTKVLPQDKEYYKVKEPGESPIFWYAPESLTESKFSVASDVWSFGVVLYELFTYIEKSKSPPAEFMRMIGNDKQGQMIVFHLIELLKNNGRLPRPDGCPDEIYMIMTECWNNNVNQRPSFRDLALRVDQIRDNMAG

IC50 (JAK2; [1])	IC50 (ALK; [2])	IC50 (JAK2; JAK2 Kinase Inhibition)	IC50 (ALK; ALK Kinase Inhibition)	SMILES
1000 to 10000 nM	< 100 nM			COc1cc(C2CCN(C(=O)CN)CC2)ccc1Nc1ncc2ccc(-c3ccccc3N(C)S(C)(=O)=O)n2n1 [Example 824, N-[2-(2-{4-[1-(2-Amino-acetyl)-piperidin-4-yl]-2-methoxy-phenylamino}-pyrrolo[2,1-f][1,2,4]triazin-7-yl)-phenyl]-N-methyl-methanesulfonamide]
		< 100 nM	< 100 nM	COc1ccc(Cl)cc1-c1ccc2cnc(Nc3cccc(N4CCC(N5CCOCC5)CC4)c3)nn12 [Example 196, [7-(5-Chloro-2-methoxy-phenyl)-pyrrolo[2,1-f][1,2,4]triazin-2-yl]-[3-(4-morpholin-4-yl-piperidin-1-yl)-phenyl]-amine]
		< 100 nM	100 to 1000 nM	CN1CCN(c2ccc(Nc3ncc4ccc(-c5cccnc5)n4n3)cc2)CC1 [Example 27, [4-(4-Methyl-piperazin-1-yl)-phenyl]-(7-pyridin-3-yl-pyrrolo[2,1-f][1,2,4]triazin-2-yl)-amine]
		< 100 nM	1000 to 10000 nM	COc1ccc(-c2ccc3cnc(Nc4ccc5nc(CN6CCOCC6)[nH]c5c4)nn23)cn1 [Example 1513, [7-(6-Methoxy-pyridin-3-yl)-pyrrolo[2,1-f][1,2,4]triazin-2-yl]-(2-morpholin-4-ylmethyl-3H-benzimidazol-5-yl)-amine]
100 to 1000 nM	< 100 nM			COc1cc2c(cc1Nc1ncc3ccc(-c4cccc5c4OCC5)n3n1)CCN(CC(N)=O)CC2 [Example 708, 2-{7-[7-(2,3-Dihydro-benzofuran-7-yl)-pyrrolo[2,1-f][1,2,4]triazin-2-ylamino]-8-methoxy-1,2,4,5-tetrahydro-3-benzazepin-3-yl}-acetamide]
		< 100 nM	100 to 1000 nM	CN1CCN(c2cccc(Nc3ncc4ccc(-c5cccc(N6CCOCC6)c5)n4n3)c2)CC1 [Example 1392, [3-(4-Methyl-piperazin-1-yl)-phenyl]-[7-(3-morpholin-4-yl-phenyl)-pyrrolo[2,1-f][1,2,4]triazin-2-yl]-amine]
< 100 nM	100 to 1000 nM			CC(C)Oc1cccc(-c2ccc3cnc(Nc4ccc(C5CCN(CC(N)=O)CC5)cc4)nn23)c1 [Example 588, 2-(4-{4-[7-(3-Isopropoxy-phenyl)-pyrrolo[2,1-f][1,2,4]triazin-2-ylamino]-phenyl}-piperidin-1-yl)-acetamide]
< 100 nM	1000 to 10000 nM			CC(C)CCn1cc(-c2ccc3cnc(Nc4cccc(N5CCN(C)CC5)c4)nn23)cn1 [Example 971, {7-[1-(3-Methyl-butyl)-1H-pyrazol-4-yl]-pyrrolo[2,1-f][1,2,4]triazin-2-yl}-[3-(4-methyl-piperazin-1-yl)-phenyl]-amine]
< 100 nM	1000 to 10000 nM			CN1CCOCc2cc(Nc3ncc4ccc(-c5ccc(S(C)(=O)=O)cc5)n4n3)ccc21 [Example 617, [7-(4-Methanesulfonyl-phenyl)-pyrrolo[2,1-f][1,2,4]triazin-2-yl]-(1-methyl-1,2,3,5-tetrahydro-benzo[e][1,4]oxazepin-7-yl)-amine]
		< 100 nM	100 to 1000 nM	CN1CCN(C)C(c2ccc(Nc3ncc4ccc(-c5cccc(S(=O)(=O)NC(C)(C)C)c5)n4n3)cc2)C1 (centres unmarked) [Example 1567, N-tert-Butyl-3-{2-[4-(1,4-dimethyl-piperazin-2-yl)-phenylamino]-pyrrolo[2,1-f][1,2,4]triazin-7-yl}-benzenesulfonamide]
		< 100 nM	100 to 1000 nM	c1cncc(-c2ccc3cnc(Nc4ccc(N5CCC(N6CCOCC6)CC5)cc4)nn23)c1 [Example 337, [4-(4-Morpholin-4-yl-piperidin-1-yl)-phenyl]-(7-pyridin-3-yl-pyrrolo[2,1-f][1,2,4]triazin-2-yl)-amine]
< 100 nM	100 to 1000 nM			COc1ccc(-c2ccc3cnc(Nc4ccc(C5CN(CC(N)=O)C5)cc4)nn23)cn1 [Example 584, 2-(3-{4-[7-(6-Methoxy-pyridin-3-yl)-pyrrolo[2,1-f][1,2,4]triazin-2-ylamino]-phenyl}-azetidin-1-yl)-acetamide]
< 100 nM	1000 to 10000 nM			Cn1ncc2ccc(Nc3ncc4ccc(-c5cccc(S(=O)(=O)CC6CC6)c5)n4n3)cc21 [Example 1321, [7-(3-Cyclopropylmethanesulfonyl-phenyl)-pyrrolo[2,1-f][1,2,4]triazin-2-yl]-(1-methyl-1H-indazol-6-yl)-amine]
		< 100 nM	100 to 1000 nM	CCN1C(=O)CCC(C)(C)c2ccc(Nc3ncc4ccc(-c5cnn(C)c5)n4n3)cc21 [Example 1379, 1-Ethyl-5,5-dimethyl-8-[7-(1-methyl-1H-pyrazol-4-yl)-pyrrolo[2,1-f][1,2,4]triazin-2-ylamino]-1,3,4,5-tetrahydro-benzo[b]azepin-2-one]
< 100 nM	100 to 1000 nM			COc1ccccc1-c1ccc2cnc(Nc3ccn(CC(=O)N4CCOCC4)n3)nn12 [Example 1111, 2-{3-[7-(2-Methoxy-phenyl)-pyrrolo[2,1-f][1,2,4]triazin-2-ylamino]-pyrazol-1-yl}-1-morpholin-4-yl-ethanone]
		< 100 nM	< 100 nM	CNC(=O)c1ccc(-c2ccc3cnc(Nc4ccc(N5CCC(N6CCN(C)CC6)CC5)cc4OC)nn23)cc1 [Example 242, 4-(2-{2-Methoxy-4-[4-(4-methyl-piperazin-1-yl)-piperidin-1-yl]-phenylamino}-pyrrolo[2,1-f][1,2,4]triazin-7-yl)-N-methyl-benzamide]
100 to 1000 nM	< 100 nM			COc1cc(C2CCN(CCO)CC2)ccc1Nc1ncc2ccc(-c3cccc(S(=O)(=O)NC4CC4)c3)n2n1 [Example 698]
< 100 nM	< 100 nM			COc1cc2c(cc1Nc1ncc3ccc(-c4cccc5c4OCC5)n3n1)CCN(CCO)CC2 [Example 704, 2-{7-[7-(2,3-Dihydro-benzofuran-7-yl)-pyrrolo[2,1-f][1,2,4]triazin-2-ylamino]-8-methoxy-1,2,4,5-tetrahydro-3-benzazepin-3-yl}-ethanol]
< 100 nM	< 100 nM			COc1ccc(-c2ccc3cnc(Nc4ccc(C5CCN(C)CC5)c(C)c4)nn23)cn1 [Example 941, [7-(6-Methoxy-pyridin-3-yl)-pyrrolo[2,1-f][1,2,4]triazin-2-yl]-[3-methyl-4-(1-methyl-piperidin-4-yl)-phenyl]-amine]
		< 100 nM	1000 to 10000 nM	FC(F)(F)c1ccc(Cl)c(-c2ccc3cnc(Nc4ccc(N5CCOCC5)cc4)nn23)c1 [Example 70, [7-(2-Chloro-5-trifluoromethyl-phenyl)-pyrrolo[2,1-f][1,2,4]triazin-2-yl]-(4-morpholin-4-yl-phenyl)-amine]
< 100 nM	< 100 nM			CN(c1ccccc1-c1ccc2cnc(Nc3ccc4c(c3)CCCC(=O)N4)nn12)S(C)(=O)=O [Example 623, N-Methyl-N-{2-[2-(2-oxo-2,3,4,5-tetrahydro-1H-benzo[b]azepin-7-ylamino)-pyrrolo[2,1-f][1,2,4]triazin-7-yl]-phenyl}-methanesulfonamide]
< 100 nM	100 to 1000 nM			CN1CCOc2ccc(Nc3ncc4ccc(-c5cccc(NS(C)(=O)=O)c5)n4n3)cc21 [Example 643, N-{3-[2-(4-Methyl-3,4-dihydro-2H-benzo[1,4]oxazin-6-ylamino)-pyrrolo[2,1-f][1,2,4]triazin-7-yl]-phenyl}methanesulfonamide]
		< 100 nM	1000 to 10000 nM	COc1ccc(Nc2ncc3ccc(-c4cccc(Cl)c4)n3n2)cc1OC [Example 152, [7-(3-Chloro-phenyl)-pyrrolo[2,1-f][1,2,4]triazin-2-yl]-(3,4-dimethoxy-phenyl)-amine]
		< 100 nM	< 100 nM	CN1CCN(C(=O)C2CCCN(c3ccc(Nc4ncc5ccc(-c6ccccc6N(C)S(C)(=O)=O)n5n4)cc3)C2)CC1 (centres unmarked) [Example 447, N-Methyl-N-[2-(2-{4-[3-(4-methyl-piperazine-1-carbonyl)-piperidin-1-yl]-phenylamino}-pyrrolo[2,1-f][1,2,4]triazin-7-yl)-phenyl]-methanesulfonamide]
< 100 nM	1000 to 10000 nM			CC(C)(C)NS(=O)(=O)c1cccc(-c2ccc3cnc(Nc4ccc5c(c4)N(S(C)(=O)=O)CCC5)nn23)c1 [Example 1060, N-tert-Butyl-3-[2-(1-methanesulfonyl-1,2,3,4-tetrahydro-quinolin-7-ylamino)-pyrrolo[2,1-f][1,2,4]triazin-7-yl]-benzenesulfonamide]
100 to 1000 nM	< 100 nM			COc1cc(C2CCNCC2)ccc1Nc1ncc2ccc(-c3ccc(C)cc3N(C)S(C)(=O)=O)n2n1 [Example 1281, N-{2-[2-(2-Methoxy-4-piperidin-4-yl-phenylamino)-pyrrolo[2,1-f][1,2,4]triazin-7-yl]-5-methyl-phenyl}-N-methyl-methanesulfonamide]
		100 to 1000 nM	< 100 nM	COc1cc(N2CCN(C[C@H](C)O)CC2)c(F)cc1Nc1ncc2ccc(-c3ccccc3N(C)S(C)(=O)=O)n2n1 [Example 1479, N-[2-(2-{5-Fluoro-4-[4-((S)-2-hydroxy-propyl)-piperazin-1-yl]-2-methoxy-phenylamino}-pyrrolo[2,1-f][1,2,4]triazin-7-yl)-phenyl]-N-methyl-methanesulfonamide]
< 100 nM	1000 to 10000 nM			COc1ccccc1-c1ccc2cnc(Nc3ccc(-c4cccnc4)cc3)nn12 [Example 1091, [7-(2-Methoxy-phenyl)-pyrrolo[2,1-f][1,2,4]triazin-2-yl]-(4-pyridin-3-yl-phenyl)-amine]
